{"source": "patent US20260285850A1", "about": "“SUBSTITUTED OXAZOLIDINONES AND IMIDAZOLINONES AS HERBICIDES” (FMC CORPORATION, priority 2023, published 2026)", "assay_type_in_all_cases": "in vivo", "key": {"[1]": {"system": "green foxtail (Setaria viridis)", "test": "Test A preemergence soil spray, visual injury rating 0-100", "details": "10 days", "procedure,_shortened": "(§1)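 Scale 0–100 (no effect to complete control), visual, versus untreated controls, read 10 days after application. Application: preemergence directed spray onto seeded loam–sand soil, or postemergence to young plants; formulation in non-phytotoxic solvent with surfactant.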"}, "[2]": {"system": "oat, wild (wild oat, Avena fatua)", "test": "Test A preemergence soil spray, visual injury rating 0-100", "details": "10 days", "procedure,_shortened": "as §1"}, "[3]": {"system": "ryegrass, Italian (italian ryegrass, Lolium multiflorum)", "test": "Test A preemergence soil spray, visual injury rating 0-100", "details": "10 days", "procedure,_shortened": "as §1"}, "kochia (Bassia scoparia) [4]": {"system": "kochia (Bassia scoparia)", "test": "Test A preemergence soil spray, visual injury rating 0-100", "details": "10 days", "procedure,_shortened": "as §1"}, "corn (Zea mays) [5]": {"system": "corn (Zea mays)", "test": "Test A preemergence soil spray, visual injury rating 0-100", "details": "10 days", "procedure,_shortened": "as §1"}, "[6]": {"system": "blackgrass (Alopecurus myosuroides)", "test": "Test A preemergence soil spray, visual injury rating 0-100", "details": "10 days", "procedure,_shortened": "as §1"}, "[7]": {"system": "barnyardgrass (Echinochloa crus-galli)", "test": "Test A preemergence soil spray, visual injury rating 0-100", "details": "10 days", "procedure,_shortened": "as §1"}, "[8]": {"system": "wheat (Triticum aestivum)", "test": "Test A preemergence soil spray, visual injury rating 0-100", "details": "10 days", "procedure,_shortened": "as §1"}, "soybean (Glycine max) [9]": {"system": "soybean (Glycine max)", "test": "Test A preemergence soil spray, visual injury rating 0-100", "details": "10 days", "procedure,_shortened": "as §1"}, "[10]": {"system": "ragweed (common ragweed, Ambrosia artemisiifolia)", "test": "Test A preemergence soil spray, visual injury rating 0-100", "details": "10 days", "procedure,_shortened": "as §1"}, "[11]": {"system": "palmer (palmer amaranth, palmer pigweed, Amaranthus palmeri)", "test": "Test A preemergence soil spray, visual injury rating 0-100", "details": "10 days", "procedure,_shortened": "as §1"}, "[12]": {"system": "green foxtail (Setaria viridis)", "test": "Test A postemergence application, visual injury rating 0-100", "procedure,_shortened": "as §1"}, "[13]": {"system": "oat, wild (wild oat, Avena fatua)", "test": "Test A postemergence application, visual injury rating 0-100", "procedure,_shortened": "as §1"}, "[14]": {"system": "ryegrass, Italian (italian ryegrass, Lolium multiflorum)", "test": "Test A postemergence application, visual injury rating 0-100", "procedure,_shortened": "as §1"}, "kochia (Bassia scoparia) [15]": {"system": "kochia (Bassia scoparia)", "test": "Test A postemergence application, visual injury rating 0-100", "procedure,_shortened": "as §1"}, "corn (Zea mays) [16]": {"system": "corn (Zea mays)", "test": "Test A postemergence application, visual injury rating 0-100", "procedure,_shortened": "as §1"}, "[17]": {"system": "horseweed (Erigeron canadensis)", "test": "Test A postemergence application, visual injury rating 0-100", "procedure,_shortened": "as §1"}, "[18]": {"system": "blackgrass (Alopecurus myosuroides)", "test": "Test A postemergence application, visual injury rating 0-100", "procedure,_shortened": "as §1"}, "[19]": {"system": "barnyardgrass (Echinochloa crus-galli)", "test": "Test A postemergence application, visual injury rating 0-100", "procedure,_shortened": "as §1"}, "[20]": {"system": "wheat (Triticum aestivum)", "test": "Test A postemergence application, visual injury rating 0-100", "procedure,_shortened": "as §1"}, "soybean (Glycine max) [21]": {"system": "soybean (Glycine max)", "test": "Test A postemergence application, visual injury rating 0-100", "procedure,_shortened": "as §1"}, "[22]": {"system": "ragweed (common ragweed, Ambrosia artemisiifolia)", "test": "Test A postemergence application, visual injury rating 0-100", "procedure,_shortened": "as §1"}, "[23]": {"system": "galium (catchweed bedstraw, Galium aparine)", "test": "Test A postemergence application, visual injury rating 0-100", "procedure,_shortened": "as §1"}, "[24]": {"system": "palmer (palmer amaranth, palmer pigweed, Amaranthus palmeri)", "test": "Test A postemergence application, visual injury rating 0-100", "procedure,_shortened": "as §1"}, "[25]": {"system": "sedge, umbrella (small-flower umbrella sedge, Cyperus difformis)", "test": "Test B flooded paddy test, visual plant response rating 0-100", "details": "250 g ai/ha, Flood, applied to paddy water, evaluated after 13 days", "procedure,_shortened": "(§2)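 Paddy-water application: test compounds went directly into water flooded 3 cm above the soil surface, with plants at 2 leaves. After a 13-day greenhouse period, responses were judged by eye relative to controls; a dash marks an untested entry.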"}, "[26]": {"system": "barnyardgrass (Echinochloa crusgalli)", "test": "Test B flooded paddy test, visual plant response rating 0-100", "details": "250 g ai/ha, Flood, applied to paddy water, evaluated after 13 days", "procedure,_shortened": "as §2"}, "[27]": {"system": "ducksalad (Heteranthera limosa)", "test": "Test B flooded paddy test, visual plant response rating 0-100", "details": "250 g ai/ha, Flood, applied to paddy water, evaluated after 13 days", "procedure,_shortened": "as §2"}, "rice (Oryza sativa)": {"system": "rice (Oryza sativa)", "test": "Test B flooded paddy test, visual plant response rating 0-100", "details": "250 g ai/ha, Flood, applied to paddy water, evaluated after 13 days", "procedure,_shortened": "as §2"}, "[28]": {"details": "62 g ai/ha, 0 = no effect, 100 = complete control"}, "[29]": {"details": "62 g ai/ha, postemergence, 10 days, 0 = no effect, 100 = complete control"}, "[30]": {"details": "Postemergence, 16 g ai/ha, greenhouse 10 days, 0 no effect, 100 complete control"}}, "data": [{"compound": "CC1(C(=O)NC2CC=C(C(=O)O)C2)CN(c2cc(Cl)cc(Cl)c2)C(=O)O1", "note": "(stereo not shown) [Compound 158]", "values": [{"measurement": "Foxtail, Green plant response rating", "setting": "[1]; 16 g ai/ha, 0 to 100 scale", "value": 0}, {"measurement": "Foxtail, Green plant response rating (0-100)", "setting": "[1]; [28]", "value": 90}, {"measurement": "Oat, Wild plant response rating", "setting": "[2]; 16 g ai/ha, 0 to 100 scale", "value": 10}, {"measurement": "Oat, Wild plant response rating (0-100)", "setting": "[2]; [28]", "value": 30}, {"measurement": "Ryegrass, Italian plant response rating", "setting": "[3]; 16 g ai/ha, 0 to 100 scale", "value": 0}, {"measurement": "Ryegrass, Italian plant response rating (0-100)", "setting": "[3]; [28]", "value": 70}, {"measurement": "Kochia plant response rating", "setting": "kochia (Bassia scoparia) [4]; 16 g ai/ha, 0 to 100 scale", "value": 30}, {"measurement": "Kochia plant response rating (0-100)", "setting": "kochia (Bassia scoparia) [4]; [28]", "value": 80}, {"measurement": "Corn plant response rating", "setting": "corn (Zea mays) [5]; 16 g ai/ha, 0 to 100 scale", "value": 0}, {"measurement": "Corn plant response rating (0-100)", "setting": "corn (Zea mays) [5]; [28]", "value": 60}, {"measurement": "Blackgrass plant response rating", "setting": "[6]; 16 g ai/ha, 0 to 100 scale", "value": 0}, {"measurement": "Blackgrass plant response rating (0-100)", "setting": "[6]; [28]", "value": 50}, {"measurement": "Barnyardgrass plant response rating", "setting": "[7]; 16 g ai/ha, 0 to 100 scale", "value": 40}, {"measurement": "Barnyardgrass plant response rating (0-100)", "setting": "[7]; [28]", "value": 90}, {"measurement": "Wheat plant response rating", "setting": "[8]; 16 g ai/ha, 0 to 100 scale", "value": 40}, {"measurement": "Wheat plant response rating (0-100)", "setting": "[8]; [28]", "value": 80}, {"measurement": "Soybean plant response rating", "setting": "soybean (Glycine max) [9]; 16 g ai/ha, 0 to 100 scale", "value": 0}, {"measurement": "Soybean plant response rating (0-100)", "setting": "soybean (Glycine max) [9]; [28]", "value": 20}, {"measurement": "Ragweed plant response rating", "setting": "[10]; 16 g ai/ha, 0 to 100 scale", "value": 0}, {"measurement": "Ragweed plant response rating (0-100)", "setting": "[10]; [28]", "value": 70}, {"measurement": "Pigweed, Palmer plant response rating", "setting": "[11]; 16 g ai/ha, 0 to 100 scale", "value": 50}, {"measurement": "Pigweed, Palmer plant response rating (0-100)", "setting": "[11]; [28]", "value": 90}, {"measurement": "Foxtail, Green plant response rating (0-100)", "setting": "[12]; [29]", "value": 90}, {"measurement": "Foxtail, Green plant response rating (0 to 100 scale)", "setting": "[12]; [30]", "value": 90}, {"measurement": "Oat, Wild plant response rating (0-100)", "setting": "[13]; [29]", "value": 90}, {"measurement": "Oat, Wild plant response rating (0 to 100 scale)", "setting": "[13]; [30]", "value": 20}, {"measurement": "Ryegrass, Italian plant response rating (0-100)", "setting": "[14]; [29]", "value": 80}, {"measurement": "Ryegrass, Italian plant response rating (0 to 100 scale)", "setting": "[14]; [30]", "value": 80}, {"measurement": "Kochia plant response rating (0-100)", "setting": "kochia (Bassia scoparia) [15]; [29]", "value": 90}, {"measurement": "Kochia plant response rating (0 to 100 scale)", "setting": "kochia (Bassia scoparia) [15]; [30]", "value": 80}, {"measurement": "Corn plant response rating (0-100)", "setting": "corn (Zea mays) [16]; [29]", "value": 100}, {"measurement": "Corn plant response rating (0 to 100 scale)", "setting": "corn (Zea mays) [16]; [30]", "value": 100}, {"measurement": "Horseweed plant response rating (0-100)", "setting": "[17]; [29]", "value": 70}, {"measurement": "Horseweed plant response rating (0 to 100 scale)", "setting": "[17]; [30]", "value": 30}, {"measurement": "Blackgrass plant response rating (0-100)", "setting": "[18]; [29]", "value": 100}, {"measurement": "Blackgrass plant response rating (0 to 100 scale)", "setting": "[18]; [30]", "value": 80}, {"measurement": "Barnyardgrass plant response rating (0-100)", "setting": "[19]; [29]", "value": 100}, {"measurement": "Barnyardgrass plant response rating (0 to 100 scale)", "setting": "[19]; [30]", "value": 90}, {"measurement": "Wheat plant response rating (0-100)", "setting": "[20]; [29]", "value": 80}, {"measurement": "Wheat plant response rating (0 to 100 scale)", "setting": "[20]; [30]", "value": 70}, {"measurement": "Soybean plant response rating (0-100)", "setting": "soybean (Glycine max) [21]; [29]", "value": 90}, {"measurement": "Soybean plant response rating (0 to 100 scale)", "setting": "soybean (Glycine max) [21]; [30]", "value": 60}, {"measurement": "Ragweed plant response rating (0-100)", "setting": "[22]; [29]", "value": 60}, {"measurement": "Ragweed plant response rating (0 to 100 scale)", "setting": "[22]; [30]", "value": 50}, {"measurement": "Galium plant response rating (0-100)", "setting": "[23]; [29]", "value": 90}, {"measurement": "Galium plant response rating (0 to 100 scale)", "setting": "[23]; [30]", "value": 90}, {"measurement": "Pigweed, Palmer plant response rating (0-100)", "setting": "[24]; [29]", "value": 90}, {"measurement": "Pigweed, Palmer plant response rating (0 to 100 scale)", "setting": "[24]; [30]", "value": 90}, {"measurement": "Plant response rating, Sedge, Umbrella (0 to 100 scale, 0 is no effect and 100 is complete control)", "setting": "[25]", "value": 98}, {"measurement": "Plant response rating, Barnyardgrass (0 to 100 scale, 0 is no effect and 100 is complete control)", "setting": "[26]", "value": 90}, {"measurement": "Plant response rating, Ducksalad (0 to 100 scale, 0 is no effect and 100 is complete control)", "setting": "[27]", "value": 70}, {"measurement": "Plant response rating, Rice (0 to 100 scale, 0 is no effect and 100 is complete control)", "setting": "rice (Oryza sativa)", "value": 50}]}]}
